Results from US11780839B2, “Compounds for treating Huntington's disease” (PTC THERAPEUTICS, INC., priority 2018, dated 2023).

Tested on: Endogenous Huntingtin Protein
Assay: Endogenous Huntingtin Protein Assay (ELISA-based Meso Scale Discovery electrochemiluminescence)
Format: cell-based
Settings: MSD electrochemiluminescence, Table 1
Outline: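 Sandwich MSD electrochemiluminescence immunoassay. Capture used MW1 (expanded polyglutamine) or MAB2166 antibody coated at 1 μg/mL overnight at 4 °C. Samples were bound overnight at 4 °C, then a rabbit monoclonal detection antibody and SULFO-TAG anti-rabbit, each at 0.25 μg/mL, were applied for 1 h at room temperature.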

Structure (SMILES) | IC50 [nM]
CN1CCC12CCN(c1ncc(-c3ccc(-c4cn[nH]c4)cc3O)nn1)CC2 [Cpd 113, 2-[3-(1-methyl-1,7-diazaspiro[3.5]nonan-7-yl)-1,2,4-triazin-6-yl]-5-(1H-pyrazol-4-yl)phenol] | 100 to 500
CN[C@H]1CCN(c2ncc(-c3ccc(-c4cn[nH]c4)cc3O)nn2)C1 [Cpd 114, 2-{3-[(3S)-3-(methylamino)pyrrolidin-l-yl]-1,2,4-triazin-6-yl}-5-(1H-pyrazol-4-yl)phenol] | ≤ 100
N[C@@H]1CN(c2ncc(-c3ccc(-c4cn[nH]c4)cc3O)nn2)CC12CC2 [Cpd 115, 2-{3-[(7S)-7-amino-5-azaspiro[2.4]heptan-5-yl]-1,2,4-triazin-6-yl}-5-(1H-pyrazol-4-yl)phenol] | 100 to 500
Oc1cc(-c2cn[nH]c2)ccc1-c1cnc(N2CCN3CCC[C@H]3C2)nn1 [Cpd 116, 2-{3-[(8aS)-hexahydropyrrolo[1,2-a]pyrazin-2(1H)-yl]-1,2,4-triazin-6-yl}-5-(1H-pyrazol-4-yl)phenol] | 100 to 500
CN1CC[C@@H]2CN(c3ncc(-c4ccc(-c5cn[nH]c5)cc4O)nn3)C[C@@H]21 [Cpd 117, 2-{3-[(3aR,6aR)-1-methylhexahydropyrrolo[3,4-b]pyrrol-5(1H)-yl]-1,2,4-triazin-6-yl}-5-(1H-pyrazol-4-yl)phenol] | 100 to 500
Oc1cc(-c2cn[nH]c2)ccc1-c1cnc(N2CC3(CNC3)C2)nn1 [Cpd 118, 2-[3-(2,6-diazaspiro[3.3]heptan-2-yl)-1,2,4-triazin-6-yl]-5-(1H-pyrazol-4-yl)phenol] | 100 to 500
Cc1nnn(-c2ccc(-c3cnc(N(C)C4CC(C)(C)NC(C)(C)C4)nn3)c(O)c2)n1 [Cpd 119, 2-{3-[methyl(2,2,6,6-tetramethylpiperidin-4-yl)amino]-1,2,4-triazin-6-yl}-5-(5-methyl-2H-tetrazol-2-yl)phenol] | ≤ 100
CCC1CC(Oc2ncc(-c3ccc(-c4cn[nH]c4)cc3O)nn2)CC(CC)N1 [Cpd 120, 2-{3-[(2R,4s,6S)-2,6-diethylpiperidin-4-yl]oxy}-1,2,4-triazin-6-yl)-5-(1H-pyrazol-4-yl)phenol] | 100 to 500
CC1(C)CC(Nc2ncc(-c3ccc(-n4nccn4)cc3O)nn2)CC(C)(C)N1 [Cpd 121, 2-{3-[(2,2,6,6-tetramethylpiperidin-4-yl)amino]-1,2,4-triazin-6-yl}-5-(2H-1,2,3-triazol-2-yl)phenol] | ≤ 100
CC1(C)CC(Oc2ncc(-c3ccc(-n4nccn4)cc3O)nn2)CC(C)(C)N1 [Cpd 122, 2-{3-[(2,2,6,6-tetramethylpiperidin-4-yl)oxy]-1,2,4-triazin-6-yl}-5-(2H-1,2,3-triazol-2-yl)phenol] | 100 to 500
CN(c1ncc(-c2ccc(-c3ccc(Cl)nn3)cc2O)nn1)C1CC(C)(C)NC(C)(C)C1 [Cpd 123, 5-(6-chloropyridazin-3-yl)-2-{3-[methyl(2,2,6,6-tetramethylpiperidin-4-yl)amino]-1,2,4-triazin-6-yl}phenol] | ≤ 100
CN(c1ncc(-c2ccc(-c3ccnn3C)cc2O)nn1)C1CC(C)(C)NC(C)(C)C1 [Cpd 124, 5-(1-methyl-1H-pyrazol-5-yl)-2-{3-[methyl(2,2,6,6-tetramethylpiperidin-4-yl)amino]-1,2,4-triazin-6-yl}phenol] | 100 to 500
CN(c1ncc(-c2cc(F)c(-c3ccn[nH]3)cc2O)nn1)C1CC(C)(C)NC(C)(C)C1 [Cpd 125, 4-fluoro-2-{3-[methyl(2,2,6,6-tetramethylpiperidin-4-yl)amino]-1,2,4-triazin-6-yl}-5-(1H-pyrazol-5-yl)phenol] | ≤ 100
CC1(C)CC(Nc2ncc(-c3ccc(-c4cn[nH]c4)cc3O)nn2)C(F)C(C)(C)N1 (centres unmarked) [Cpd 126, 2-{3-[(3-fluoro-2,2,6,6-tetramethylpiperidin-4-yl)amino]-1,2,4-triazin-6-yl}-5-(1H-pyrazol-4-yl)phenol] | ≤ 100
CCN(CC)C1C2CN(c3ncc(-c4ccc(-c5cn[nH]c5)cc4O)nn3)CC21 (centres unmarked) [Cpd 127, 2-{3-[6-(diethylamino)-3-azabicyclo[3.1.0]hexan-3-yl]-1,2,4-triazin-6-yl}-5-(1H-pyrazol-4-yl)phenol] | 100 to 500
Cc1cnc(-c2ccc(-c3cnc(N(C)C4CC(C)(C)NC(C)(C)C4)nn3)c(O)c2)nc1 [Cpd 128, 5-(5-methylpyrimidin-2-yl)-2-{3-[methyl(2,2,6,6-tetramethylpiperidin-4-yl)amino]-1,2,4-triazin-6-yl}phenol] | 100 to 500
Cc1ccnc(-c2ccc(-c3cnc(N(C)C4CC(C)(C)NC(C)(C)C4)nn3)c(O)c2)n1 [Cpd 129, 5-(4-methylpyrimidin-2-yl)-2-{3-[methyl(2,2,6,6-tetramethylpiperidin-4-yl)amino]-1,2,4-triazin-6-yl}phenol] | 100 to 500
CN(c1ncc(-c2ccc(-c3ccnc(Cl)n3)cc2O)nn1)C1CC(C)(C)NC(C)(C)C1 [Cpd 130, 5-(2-chloropyrimidin-4-yl)-2-{3-[methyl(2,2,6,6-tetramethylpiperidin-4-yl)amino]-1,2,4-triazin-6-yl}phenol] | 100 to 500

Structure (SMILES) | IC50 [nM]
CN(c1ncc(-c2ccc(-c3ccc4[nH]cnc4c3)cc2O)nn1)C1CC(C)(C)NC(C)(C)C1 [Cpd 131, 5-(1H-benzimidazol-5-yl)-2-{3-[methyl(2,2,6,6-tetramethylpiperidin-4-yl)amino]-1,2,4-triazin-6-yl}phenol] | ≤ 100
CN(c1ncc(-c2ccc(-c3cnc4[nH]ncc4c3)cc2O)nn1)C1CC(C)(C)NC(C)(C)C1 [Cpd 132, 2-{3-[methyl(2,2,6,6-tetramethylpiperidin-4-yl)amino]-1,2,4-triazin-6-yl}-5-(1H-pyrazolo[3,4-b]pyridin-5-yl)phenol] | 100 to 500
CN(c1ncc(-c2ccc(-n3cnc(Cl)n3)cc2O)nn1)C1CC(C)(C)NC(C)(C)C1 [Cpd 133, 5-(3-chloro-1H-1,2,4-triazol-1-yl)-2-{3-[methyl(2,2,6,6-tetramethylpiperidin-4-yl)amino]-1,2,4-triazin-6-yl}phenol] | ≤ 100
CN(c1ncc(-c2ccc(-c3ccc(O)nn3)cc2O)nn1)C1CC(C)(C)NC(C)(C)C1 [Cpd 134, 6-(3-hydroxy-4-{3-[methyl(2,2,6,6-tetramethylpiperidin-4-yl)amino]-1,2,4-triazin-6-yl}phenyl)pyridazin-3-ol] | ≤ 100
CN(c1ncc(-c2ccc(-n3cc(C#N)cn3)cc2O)nn1)C1CC(C)(C)NC(C)(C)C1 [Cpd 135, 1-(3-hydroxy-4-{3-[methyl(2,2,6,6-tetramethylpiperidin-4-yl)amino]-1,2,4-triazin-6-yl}phenyl)-1H-pyrazole-4-carbonitrile] | 100 to 500
CN(c1ncc(-c2ccc(-c3ccc4[nH]ncc4n3)cc2O)nn1)C1CC(C)(C)NC(C)(C)C1 [Cpd 136, 2-{3-[methyl(2,2,6,6-tetramethylpiperidin-4-yl)amino]-1,2,4-triazin-6-yl}-5-(1H-pyrazolo[4,3-b]pyridin-5-yl)phenol] | ≤ 100
Oc1cc(-c2cn[nH]c2)ccc1-c1cnc(N2CCC(NC3CC3)C2)nn1 (centres unmarked) [Cpd 137, 2-{3-[3-(cyclopropylamino)pyrrolidin-1-yl]-1,2,4-triazin-6-yl}-5-(1H-pyrazol-4-yl)phenol] | ≤ 100
CC(C)(C)NC1CCN(c2ncc(-c3ccc(-c4cn[nH]c4)cc3O)nn2)C1 (centres unmarked) [Cpd 138, 2-{3-[3-(tert-butylamino)pyrrolidin-1-yl]-1,2,4-triazin-6-yl}-5-(1H-pyrazol-4-yl)phenol] | ≤ 100
CN(c1ncc(-c2ccc(-n3cnc(C#N)c3)cc2O)nn1)C1CC(C)(C)NC(C)(C)C1 [Cpd 139, 1-(3-hydroxy-4-{3-[methyl(2,2,6,6-tetramethylpiperidin-4-yl)amino]-1,2,4-triazin-6-yl}phenyl)-1H-imidazole-4-carbonitrile] | 100 to 500
CC(=O)c1cn(-c2ccc(-c3cnc(N(C)C4CC(C)(C)NC(C)(C)C4)nn3)c(O)c2)cn1 [Cpd 140, 1-[1-(3-hydroxy-4-{3-[methyl(2,2,6,6-tetramethylpiperidin-4-yl)amino]-1,2,4-triazin-6-yl}phenyl)-1H-imidazol-4-yl]ethan-l-one] | ≤ 100
Cc1cn2nc(-c3ccc(-c4cnc(N(C)C5CC(C)(C)NC(C)(C)C5)nn4)c(O)c3)cc(C)c2n1 [Cpd 141, 5-(2,8-dimethylimidazo[1,2-b]pyridazin-6-yl)-2-{3-[methyl(2,2,6,6-tetramethylpiperidin-4-yl)amino]-1,2,4-triazin-6-yl}phenol] | ≤ 100
Cc1cn2nc(-c3ccc(-c4cnc(N(C)C5CC(C)(C)NC(C)(C)C5)nn4)c(O)c3)ccc2n1 [Cpd 142, 5-(2-methylimidazo[1,2-b]pyridazin-6-yl)-2-{3-[methyl(2,2,6,6-tetramethylpiperidin-4-yl)amino]-1,2,4-triazin-6-yl}phenol] | ≤ 100
CN(c1ncc(-c2ccc(-c3nnn(C)n3)cc2O)nn1)C1CC(C)(C)NC(C)(C)C1 [Cpd 143, 2-{3-[methyl(2,2,6,6-tetramethylpiperidin-4-yl)amino]-1,2,4-triazin-6-yl}-5-(2-methyl-2H-tetrazol-5-yl)phenol] | ≤ 100
COc1cnc(-c2ccc(-c3cnc(N(C)C4CC(C)(C)NC(C)(C)C4)nn3)c(O)c2)nn1 [Cpd 144, 5-(6-methoxy-1,2,4-triazin-3-yl)-2-{3-[methyl(2,2,6,6-tetramethylpiperidin-4-yl)amino]-1,2,4-triazin-6-yl}phenol] | ≤ 100
CN(c1ncc(-c2ccc(-c3ccc4ncoc4c3)cc2O)nn1)C1CC(C)(C)NC(C)(C)C1 [Cpd 145, 5-(1,3-benzoxazol-6-yl)-2-{3-[methyl(2,2,6,6-tetramethylpiperidin-4-yl)amino]-1,2,4-triazin-6-yl}phenol] | ≤ 100
CN(c1ncc(-c2ccc(-c3cc(=O)n(C)cn3)cc2O)nn1)C1CC(C)(C)NC(C)(C)C1 [Cpd 146, 6-(3-hydroxy-4-{3-[methyl(2,2,6,6-tetramethylpiperidin-4-yl)amino]-1,2,4-triazin-6-yl}phenyl)-3-methylpyrimidin-4(3H)-one] | ≤ 100
CN(c1ncc(-c2ccc(-c3cnn(C)c(=O)c3)cc2O)nn1)C1CC(C)(C)NC(C)(C)C1 [Cpd 147, 5-(3-hydroxy-4-{3-[methyl(2,2,6,6-tetramethylpiperidin-4-yl)amino]-1,2,4-triazin-6-yl}phenyl)-2-methylpyridazin-3(2H)-one] | ≤ 100
